Test results reported in US12102615B2 (THE TEXAS A&M UNIVERSITY SYSTEM, priority 2018, dated 2024).
Values after ≈ are worked out from the molar mass of the structure shown. Values joined by “and” are separate entries in the source; they are usually repeats but may differ in a detail not shown here. Equal entries are not always repeated. Where two headings read alike, the source gives them in different places.

Columns and labels:
[1] = system: Fluconazole resistant C. albicans and C. glabrata; assay: MIC against fluconazole resistant isolates; type: cell-based
Description: (§1) Minimum inhibitory concentration (MIC) susceptibility testing was performed according to the CLSI M27-A3 and M38-A2 standards for the susceptibility testing of yeasts and filamentous fungi, respectively. Incubation temperature was at 35° C. and the inoculum size was 0.5-2.5×10^3 colony-forming units (CFU)/mL and 0.4-5×10^4 conidia/mL for yeasts and filamentous fungi, respectively. Inoculum concentration for dermatophytes was 1-3×10^3 conidia/mL. RPMI was used throughout as the growth medium and Cryptococcus strains were tested in YNB. […] Voriconazole MICs were recorded at 80% inhibition after 96 hours of incubation for dermatophytes. S. cerevisiae deletion mutants were obtained from the commercially available BY4741 deletion library (Thermo Scientific). Susceptibility testing was carried out on inoculum size of 0.5-1×10^4 cells/ml in YPD media at 30° C. and MICs recorded after 48 and 60 hours.

[2] = system: Trichophyton rubrum 11199; assay: MIC susceptibility testing (CLSI M38-A2); type: cell-based
Description: as §1

[3] = system: Trichophyton mentagrophytes 28641; assay: MIC susceptibility testing (CLSI M38-A2); type: cell-based
Description: as §1

[4] = system: Trichophyton rubrum 28658; assay: MIC susceptibility testing (CLSI M38-A2); type: cell-based
Description: as §1

[5] = system: Trichophyton rubrum 28659; assay: MIC susceptibility testing (CLSI M38-A2); type: cell-based
Description: as §1

[6] = system: Trichophyton mentagrophytes 28556; assay: MIC susceptibility testing (CLSI M38-A2); type: cell-based
Description: as §1

[7] = system: Trichophyton mentagrophytes 10207; assay: MIC susceptibility testing (CLSI M38-A2); type: cell-based
Description: as §1

[8] = system: Cryptococcus neoformans 28446; assay: MIC susceptibility testing (CLSI M27-A3); type: cell-based; settings: Cryptococcus neoformans, 28446, 72 h, read-out: Fluconazole MIC
Description: as §1

Candida glabrata 28271 = assay: MIC susceptibility testing (CLSI M27-A3); type: cell-based; settings: Nakaseomyces glabratus, 28271, 24 h, read-out: Fluconazole MIC
Description: as §1

Candida tropicalis 28478 = assay: MIC susceptibility testing (CLSI M27-A3); type: cell-based; settings: Candida tropicalis, 28478, 24 h, read-out: Fluconazole MIC
Description: as §1

[9] = system: Cryptococcus neoformans 27708; assay: MIC susceptibility testing (CLSI M27-A3); type: cell-based; settings: Cryptococcus neoformans, 27708, 72 h, read-out: Fluconazole MIC
Description: as §1

[10] = system: Candida parapsilosis 2006; assay: MIC susceptibility testing (CLSI M27-A3); type: cell-based; settings: Lodderomyces parapsilosis, 2006, 24 h, read-out: Fluconazole MIC
Description: as §1

Candida albicans 23512 = assay: MIC susceptibility testing (CLSI M27-A3); type: cell-based; settings: Candida albicans, 23512, 24 h, read-out: Fluconazole MIC
Description: as §1

Candida albicans 28200 = assay: MIC susceptibility testing (CLSI M27-A3); type: cell-based; settings: Candida albicans, 28200, 24 h, read-out: Fluconazole MIC
Description: as §1

Candida tropicalis 9624 = assay: MIC susceptibility testing (CLSI M27-A3); type: cell-based; settings: Candida tropicalis, 9624, 24 h, read-out: Fluconazole MIC
Description: as §1

Candida krusei 28415 = assay: MIC susceptibility testing (CLSI M27-A3); type: cell-based; settings: Pichia kudriavzevii, 28415, 24 h, read-out: Fluconazole MIC
Description: as §1

Candida tropicalis 28272 = assay: MIC susceptibility testing (CLSI M27-A3); type: cell-based; settings: Candida tropicalis, 28272, 24 h, read-out: Fluconazole MIC
Description: as §1

Candida krusei 9541 = assay: MIC susceptibility testing (CLSI M27-A3); type: cell-based; settings: Pichia kudriavzevii, 9541, 24 h, read-out: Fluconazole MIC
Description: as §1

Candida glabrata 27243 = assay: MIC susceptibility testing (CLSI M27-A3); type: cell-based; settings: Nakaseomyces glabratus, 27243, 24 h, read-out: Fluconazole MIC
Description: as §1

Candida krusei 28570 = assay: MIC susceptibility testing (CLSI M27-A3); type: cell-based; settings: Pichia kudriavzevii, 28570, 24 h, read-out: Fluconazole MIC
Description: as §1

Candida albicans 28102 = assay: MIC susceptibility testing (CLSI M27-A3); type: cell-based; settings: Candida albicans, 28102, 24 h, read-out: Fluconazole MIC
Description: as §1

Candida glabrata 25742 = assay: MIC susceptibility testing (CLSI M27-A3); type: cell-based; settings: Nakaseomyces glabratus, 25742, 24 h, read-out: Fluconazole MIC
Description: as §1

[11] = system: Candida parapsilosis 28174; assay: MIC susceptibility testing (CLSI M27-A3); type: cell-based; settings: Lodderomyces parapsilosis, 28174, 24 h, read-out: Fluconazole MIC
Description: as §1

[12] = system: Candida parapsilosis 28364; assay: MIC susceptibility testing (CLSI M27-A3); type: cell-based; settings: Lodderomyces parapsilosis, 28364, 24 h, read-out: Fluconazole MIC
Description: as §1

[13] = system: Cryptococcus neoformans 19526; assay: MIC susceptibility testing (CLSI M27-A3); type: cell-based; settings: Cryptococcus neoformans, 19526, 72 h, read-out: Fluconazole MIC
Description: as §1

Aspergillus flavus 28455 = assay: MIC susceptibility testing (CLSI M38-A2); type: cell-based; settings: Aspergillus flavus, 28455, 48 h, read-out: Voriconazole MIC
Description: as §1

[14] = system: Aspergillus fumigatus 28434; assay: MIC susceptibility testing (CLSI M38-A2); type: cell-based; settings: Aspergillus fumigatus, 28434, 48 h, read-out: Voriconazole MIC
Description: as §1

Aspergillus flavus 28445 = assay: MIC susceptibility testing (CLSI M38-A2); type: cell-based; settings: Aspergillus flavus, 28445, 48 h, read-out: Voriconazole MIC
Description: as §1

[15] = system: Rhizopus microsporus 28506; assay: MIC susceptibility testing (CLSI M38-A2); type: cell-based; settings: Rhizopus microsporus, 28506, 24 h, read-out: Voriconazole MIC
Description: as §1

Aspergillus flavus 28517 = assay: MIC susceptibility testing (CLSI M38-A2); type: cell-based; settings: Aspergillus flavus, 28517, 48 h, read-out: Voriconazole MIC
Description: as §1

Fusarium solani 28386 = assay: MIC susceptibility testing (CLSI M38-A2); type: cell-based; settings: Fusarium solani, 28386, 48 h, read-out: Voriconazole MIC
Description: as §1

Mucor racemosus 27784 = assay: MIC susceptibility testing (CLSI M38-A2); type: cell-based; settings: Mucor racemosus, 27784, 24 h, read-out: Voriconazole MIC
Description: as §1

[16] = system: Mucor circinelloides 19445; assay: MIC susceptibility testing (CLSI M38-A2); type: cell-based; settings: Mucor circinelloides, 19445, 24 h, read-out: Voriconazole MIC
Description: as §1

Rhizopus oryzae 28403 = assay: MIC susceptibility testing (CLSI M38-A2); type: cell-based; settings: Rhizopus arrhizus, 28403, 24 h, read-out: Voriconazole MIC
Description: as §1

Fusarium oxysporum 27718 = assay: MIC susceptibility testing (CLSI M38-A2); type: cell-based; settings: Fusarium oxysporum, 27718, 48 h, read-out: Voriconazole MIC
Description: as §1

[17] = system: Aspergillus fumigatus 28436; assay: MIC susceptibility testing (CLSI M38-A2); type: cell-based; settings: Aspergillus fumigatus, 28436, 48 h, read-out: Voriconazole MIC
Description: as §1

[18] = system: Aspergillus fumigatus 28435; assay: MIC susceptibility testing (CLSI M38-A2); type: cell-based; settings: Aspergillus fumigatus, 28435, 48 h, read-out: Voriconazole MIC
Description: as §1

Mucor fragdis 27782 = assay: MIC susceptibility testing (CLSI M38-A2); type: cell-based; settings: Mucor, 27782, 24 h, read-out: Voriconazole MIC
Description: as §1

Fusarium solani 18749 = assay: MIC susceptibility testing (CLSI M38-A2); type: cell-based; settings: Fusarium solani, 18749, 48 h, read-out: Voriconazole MIC
Description: as §1

[19] = system: Rhizopus microsporus 27785; assay: MIC susceptibility testing (CLSI M38-A2); type: cell-based; settings: Rhizopus microsporus, 27785, 24 h, read-out: Voriconazole MIC
Description: as §1

F-actin [20] = molecular target: T1, F-actin (Oryctolagus cuniculus, UniProt P68135); parameters: Purified rabbit skeletal muscle filamentous actin (AKF99); purchased Cytoskeleton Inc. (Denver, CO) AKF99; host or cells: rabbit skeletal muscle; settings: co-sedimentation assay, published previously (Ravichandran et al.), read-out: Kd, binding to actin; cited from earlier work
actin = molecular target: T2, actin (Oryctolagus cuniculus, UniProt P68135); assay: Pyrene labeled actin polymerization assay; type: biochemical; settings: 5 μM; approximately one hour after incubation in the polymerization buffer
T2 construct: purchased Cytoskeleton, Inc. (Denver, CO) BK003
Description: (§2) Actin polymerization and depolymerization assays were performed using the Actin polymerization biochem kit (#BK003; Cytoskeleton, Inc. Denver, CO) following the manufacturer's instructions with some modifications. Briefly, for the polymerization assay, G-actin stock solution was made at 0.2 mg/mL instead of 0.4 mg/mL. For the depolymerization assay, F-actin stock solution was diluted 9-fold instead of 5-fold. […] The experiments were done in duplicate.

F-actin [21] = molecular target: T1, F-actin; assay: Pyrene labeled actin depolymerization assay; type: biochemical; parameters: purchased Cytoskeleton, Inc. (Denver, CO) BK003; settings: 5 μM
Description: as §2

With `OC(Cn1cncn1)(Cn1cncn1)c1ccc(F)cc1F` [Fluconazole] the “MIC / inhibitory concentrations” value [1] was ≥ 32 µg/mL, the MIC ([2]; Trichophyton rubrum, 11199, read-out: Fluconazole MIC) was 0.25 µg/mL (≈ 0.816 µM) and the MIC ([3]; Trichophyton mentagrophytes, 28641, read-out: Fluconazole MIC) was 16 µg/mL (≈ 52.2 µM). The MIC ([4]; Trichophyton rubrum, 28658, read-out: Fluconazole MIC) was 2 µg/mL (≈ 6.53 µM), the MIC ([5]; Trichophyton rubrum, 28659, read-out: Fluconazole MIC) was 2 µg/mL (≈ 6.53 µM) and the MIC ([6]; Trichophyton mentagrophytes, 28556, read-out: Fluconazole MIC) was > 16 µg/mL. The MIC ([7]; Trichophyton mentagrophytes, 10207, read-out: Fluconazole MIC) was > 16 µg/mL, the MIC [8] was 4 µg/mL (≈ 13.1 µM) and the MIC (Candida glabrata 28271) was > 64 µg/mL. It also gave an MIC (Candida tropicalis 28478) of 0.125 µg/mL (≈ 0.408 µM), an MIC [9] of 2 µg/mL (≈ 6.53 µM) and an MIC [10] of 0.125 µg/mL (≈ 0.408 µM). For the same compound, the MIC (Candida albicans 23512) was 32 µg/mL (≈ 104 µM), the MIC (Candida albicans 28200) was 8 µg/mL (≈ 26.1 µM) and the MIC (Candida tropicalis 9624) was 0.25 µg/mL (≈ 0.816 µM). The MIC (Candida krusei 28415) was 64 µg/mL (≈ 209 µM), the MIC (Candida tropicalis 28272) was 0.125 µg/mL (≈ 0.408 µM) and the MIC (Candida krusei 9541) was 16 µg/mL (≈ 52.2 µM). For the same compound, the MIC (Candida glabrata 27243) was 64 µg/mL (≈ 209 µM), the MIC (Candida krusei 28570) was 16 µg/mL (≈ 52.2 µM) and the MIC (Candida albicans 28102) was 0.125 µg/mL (≈ 0.408 µM). For the same compound, the MIC (Candida glabrata 25742) was 4 µg/mL (≈ 13.1 µM), the MIC [11] was 0.25 µg/mL (≈ 0.816 µM) and the MIC [12] was 0.25 µg/mL (≈ 0.816 µM). For the same compound, the MIC [13] was 4 µg/mL (≈ 13.1 µM).

In the case of `C[C@@H](c1ncncc1F)[C@](O)(Cn1cncn1)c1ccc(F)cc1F` [Voriconazole], the MIC ([2]; Trichophyton rubrum, 11199, 96 h, read-out: Voriconazole MIC) is reported as 0.008 µg/mL (≈ 0.0229 µM), the MIC ([3]; Trichophyton mentagrophytes, 28641, 96 h, read-out: Voriconazole MIC) is reported as 0.06 µg/mL (≈ 0.172 µM) and the MIC (Aspergillus flavus 28455) is reported as 2 µg/mL (≈ 5.73 µM). The MIC [14] was 1 µg/mL (≈ 2.86 µM), the MIC ([4]; Trichophyton rubrum, 28658, 96 h, read-out: Voriconazole MIC) was 0.03 µg/mL (≈ 0.0859 µM) and the MIC ([5]; Trichophyton rubrum, 28659, 96 h, read-out: Voriconazole MIC) was 0.03 µg/mL (≈ 0.0859 µM). The MIC (Aspergillus flavus 28445) was 2 µg/mL (≈ 5.73 µM), the MIC [15] was 16 µg/mL (≈ 45.8 µM) and the MIC (Aspergillus flavus 28517) was 1 µg/mL (≈ 2.86 µM). The MIC (Fusarium solani 28386) was > 16 µg/mL, the MIC (Mucor racemosus 27784) was > 16 µg/mL and the MIC [16] was > 16 µg/mL. For the same compound, the MIC ([6]; Trichophyton mentagrophytes, 28556, 96 h, read-out: Voriconazole MIC) was 0.06 µg/mL (≈ 0.172 µM), the MIC ([7]; Trichophyton mentagrophytes, 10207, 96 h, read-out: Voriconazole MIC) was 0.25 µg/mL (≈ 0.716 µM) and the MIC (Rhizopus oryzae 28403) was > 16 µg/mL. For the same compound, the MIC (Fusarium oxysporum 27718) was > 16 µg/mL, the MIC [17] was 1 µg/mL (≈ 2.86 µM) and the MIC [18] was 1 µg/mL (≈ 2.86 µM). For the same compound, the MIC (Mucor fragdis 27782) was > 16 µg/mL, the MIC (Fusarium solani 18749) was > 16 µg/mL and the MIC [19] was > 16 µg/mL.

In the case of phalloidin, the Kd (F-actin [20]) is listed as ~8 nM and 8 nM, the “pyrene fluorescence reading, plateau in polymerization buffer” value (actin) is listed as “around 19,000 AU” and the “effect on polymerization or depolymerization of actin” value (F-actin [21]) is listed as “completely blocked the depolymerization of F-actin”. The “pyrene fluorescent reading following incubation in depolymerization buffer” value (F-actin [21]; no drug control at 2,500 AU) was “above 5,000 AU”.
